This passage reports IC50 results from patent US8541596B2, “Inhibitors” (Probiodrug AG, priority 2010, dated 2013).

The target of this assay is hQC (Homo sapiens (Human), UniProt Q16769). As to the kind of experiment: QC inhibitor assay (fluorometric/spectrophotometric QC activity assay with inhibitor added). In kind it is biochemical. As to conditions: bound. As to the method:
All measurements were performed with a BioAssay Reader HTS-7000Plus for microplates (Perkin Elmer) at 30° C. QC activity was evaluated fluorometrically using H-Gln-βNA. The samples consisted of 0.2 mM fluorogenic substrate, 0.25 U pyroglutamyl aminopeptidase (Unizyme, Høsholm, Denmark) in 0.2 M Tris/HCl, pH 8.0 containing 20 mM EDTA and an appropriately diluted aliquot of QC in a final volume of 250 μl. Excitation/emission wavelengths were 320/410 nm. The assay reactions were initiated by addition of glutaminyl cyclase. QC activity was determined from a standard curve of /3-naphthylamine under assay conditions. One unit is defined as the amount of QC catalyzing the formation of 1 μmol pGlu-βNA from H-Gln-/3NA per minute under the described conditions.
In a second fluorometric assay, QC was activity determined using H-Gln-AMC as substrate. Reactions were carried out at 30° C. utilizing the NOVOStar reader for microplates (BMG labtechnologies). The samples consisted of varying concentrations of the fluorogenic substrate, 0.1 U pyroglutamyl aminopeptidase (Qiagen) in 0.05 M Tris/HCl, pH 8.0 containing 5 mM EDTA and an appropriately diluted aliquot of QC in a final volume of 250 μl. Excitation/emission wavelengths were 380/460 nm. The assay reactions were initiated by addition of glutaminyl cyclase. QC activity was determined from a standard curve of 7-amino-4-methylcoumarin under assay conditions. The kinetic data were evaluated using GraFit software.
This novel assay was used to determine the kinetic parameters for most of the QC substrates. […] Samples consisted of the respective QC substrate, 0.3 mM NADH, 14 mM a-Ketoglutaric acid and 30 U/ml glutamate dehydrogenase in a final volume of 250 μl. Reactions were started by addition of QC and persued by monitoring of the decrease in absorbance at 340 nm for 8-15 min.
The initial velocities were evaluated and the enzymatic activity was determined from a standard curve of ammonia under assay conditions. All samples were measured at 30° C., using either the […]uor Plus or the Sunrise (both from TECAN) reader for microplates. Kinetic data was evaluated using GraFit software.
For inhibitor testing, the sample composition was the same as described above, except for the putative inhibitory compound added. For a rapid test of QC-inhibition, samples contained 4 mM of the respective inhibitor and a substrate concentration at 1 KM. For detailed investigations of the inhibition and determination of K,-values, influence of the inhibitor on the auxiliary enzymes was investigated first. […] The inhibitory constant was evaluated by fitting the set of progress curves to the general equation for competitive inhibition using GraFit software.

In general, IC50 refers to the point on the concentration scale where inhibition reaches its midpoint.

hQC, sequence (Q16769 29-361): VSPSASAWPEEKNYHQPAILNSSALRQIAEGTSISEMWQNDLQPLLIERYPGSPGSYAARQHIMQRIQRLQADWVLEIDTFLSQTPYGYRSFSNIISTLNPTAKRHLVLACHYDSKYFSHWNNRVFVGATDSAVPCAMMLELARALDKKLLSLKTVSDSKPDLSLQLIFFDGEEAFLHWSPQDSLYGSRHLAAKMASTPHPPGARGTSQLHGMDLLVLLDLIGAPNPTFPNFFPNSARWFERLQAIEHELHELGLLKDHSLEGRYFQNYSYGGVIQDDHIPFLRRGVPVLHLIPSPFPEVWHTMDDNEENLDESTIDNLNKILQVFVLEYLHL

`c1ccc(CN(Cc2ccccc2)c2ccc3[nH]cnc3c2)cc1` [Example 10, N,N-Dibenzyl-1H-benzo[d]imidazol-5-amine] showed an IC50 of under 10 µM. With `CSc1ccc(CNc2ccc3[nH]cnc3c2)cc1` [Example 11, N-(4-(Methylthio)benzyl)-1H-benzo[d]imidazol-5-amine] the figure was under 10 µM; with `N#Cc1ccc(CN(Cc2ccc(C#N)cc2)c2ccc3[nH]cnc3c2)cc1` [Example 19, N,N-Bis(4-cyanobenzyl)-1H-benzo[d]imidazol-5-amine], under 10 µM; with `Brc1ccc(CN(Cc2ccc(Br)cc2)c2ccc3[nH]cnc3c2)cc1` [Example 27, N,N-Bis(4-bromobenzyl)-1H-benzo[d]imidazol-5-amine], under 10 µM. Compound `c1ccc2sc(CN(Cc3nc4ccccc4s3)c3ccc4[nH]cnc4c3)nc2c1` [Example 34, N,N-Bis((benzo[d]thiazol-2-yl)methyl)-1H-benzo[d]imidazol-5-amine] registered a concentration for half-maximal inhibition (IC50) of under 10 µM. As to `Cc1ccc2cc(CN(Cc3ccc4nc(C)ccc4c3)c3ccc4[nH]cnc4c3)ccc2n1` [Example 37, N,N-Bis((2-methylquinolin-6-yl)methyl)-1H-benzo[d]imidazol-5-amine], the IC50 was under 10 µM. Compound `Cc1c(F)c(F)c(CNc2ccc3[nH]cnc3c2)c(F)c1F` [Example 44, N-(2,3,5,6-Tetrafluoro-4-methylbenzyl)-1H-benzo[d]imidazol-5-amine] showed an IC50 of under 10 µM.

`Clc1ccc2scc(CNc3ccc4[nH]cnc4c3)c2c1` [Example 49, N-((5-Chlorobenzo[b]thiophen-3-yl)methyl)-1H-benzo[d]imidazol-5-amine] came in with an IC50 of under 10 µM. As to `CSc1ccc(CN(Cc2cc(F)cc(F)c2)c2ccc3[nH]cnc3c2)cc1` [Example 59, N-(3,5-Difluorobenzyl)-N-(4-(methylthio)benzyl)-1H-benzo[d]imidazol-5-amine], the IC50 was under 10 µM. Then `CSc1ccc(CN(Cc2cc(F)c(F)c(F)c2)c2ccc3[nH]cnc3c2)cc1` [Example 60, N-(3,4,5-Trifluorobenzyl)-N-(4-(methylthio)benzyl)-1H-benzo[d]imidazol-5-amine], with under 10 µM; and `CSc1ccc(CN(Cc2c(F)c(F)c(C)c(F)c2F)c2ccc3[nH]cnc3c2)cc1` [Example 62, N-(2,3,5,6-Tetrafluoro-4-methylbenzyl)-N-(4-(methylthio)benzyl)-1H-benzo[d]imidazol-5-amine], with under 10 µM. With `CSc1ccc(CN(Cc2nc3ccccc3s2)c2ccc3[nH]cnc3c2)cc1` [Example 66, N-(4-(Methylthio)benzyl)-N-((benzo[d]thiazol-2-yl)methyl)-1H-benzo[d]imidazol-5-amine] the figure was under 10 µM; with `CCc1ccc(CN(Cc2ccc(SC)cc2)c2ccc3[nH]cnc3c2)cc1` [Example 69, N-(4-(Methylthio)benzyl)-N-(4-ethylbenzyl)-1H-benzo[d]imidazol-5-amine], under 10 µM; with `CCc1ccc(CN(Cc2cc(F)c(F)c(F)c2)c2ccc3[nH]cnc3c2)cc1` [Example 71, N-(3,4,5-Trifluorobenzyl)-N-(4-ethylbenzyl)-1H-benzo[d]imidazol-5-amine], under 10 µM. For the compound `CCc1ccc(CN(Cc2ccc(C#N)cc2)c2ccc3[nH]cnc3c2)cc1` [Example 72, N-(4-Cyanobenzyl)-N-(4-ethylbenzyl)-1H-benzo[d]imidazol-5-amine], the IC50 is under 10 µM. With `CCc1ccc(CN(Cc2nc3ccccc3s2)c2ccc3[nH]cnc3c2)cc1` [Example 74, N-(4-Ethylbenzyl)-N-((benzo[d]thiazol-2-yl)methyl)-1H-benzo[d]imidazol-5-amine] the figure was under 10 µM; with `COc1ccc(CN(Cc2ccc3nsnc3c2)c2ccc3[nH]cnc3c2)cc1` [Example 76, N-(4-Methoxybenzyl)-N-((benzo[c][1,2,5]thiadiazol-6-yl)methyl)-1H-benzo[d]imidazol-5-amine], under 10 µM. Regarding `Cc1ccc(CN(Cc2ccc(N(C)C)cc2)c2ccc3[nH]cnc3c2)cc1` [Example 78, N-(4-(Dimethylamino)benzyl)-N-(4-methylbenzyl)-1H-benzo[d]imidazol-5-amine], the IC50 is under 10 µM. Then `CN(C)c1ccc(CN(Cc2ccc3nsnc3c2)c2ccc3[nH]cnc3c2)cc1` [Example 81, N-(4-(Dimethylamino)benzyl)-N-((benzo[c][1,2,5]thiadiazol-5-yl)methyl)-1H-benzo[d]imidazol-5-amine], with under 10 µM; and `CCCCN(Cc1ccc(SC)cc1)c1ccc2[nH]cnc2c1` [Example 83, N-(4-(Methylthio)benzyl)-N-butyl-1H-benzo[d]imidazol-5-amine], with under 10 µM; and `COc1ccc(CN(Cc2ccccc2)c2ccc3nc[nH]c3c2)cc1` [Example 86, N-(4-Methoxybenzyl)-N-benzyl-3H-benzo[d]imidazol-5-amine], with under 10 µM. Then `COc1ccc(CN(CCCc2ccccc2)c2ccc3nc[nH]c3c2)cc1` [Example 89, N-(4-Methoxybenzyl)-N-(3-phenylpropyl)-3H-benzo[d]imidazol-5-amine], with under 10 µM.
